In one series the test system is ERAP2. In words: ERAP2 expression in PBMC of RRMS patients over the course of GA treatment (exon arrays, PCR). The series is classed as in vivo, human. The conditions noted are these: baseline, 3, 12 and 24 months of treatment (FIG. 4). As to the method:
Relapsing-remitting multiple sclerosis patients were treated with GA. Whole blood was taken from patients at four time points including baseline (baseline, month 3, month 12 and month 24). Peripheral blood mononuclear cells (PBMCs) were cryopreserved and RNA was isolated for gene expression analysis (FIG. 3).
Gene expression analysis was performed using Affymetrix Human Exon 1.0 ST expression arrays. Preprocessing was performed with an integrated three-step approach: background correction, normalization […] implemented in the Affymetrix Expression Console. Batch effects normalization was performed with the removeBatchEffect function from limma R package.
PCR analysis was performed in order to validate the expression of ERAP2 in Responder populations as compared to Non-Responders and Healthy Controls.

The conditions of series [1]: daily standard dose of 20 mg; cited from earlier work.
Series [2] deals with RRMS subjects. The conditions noted are these: over 9 months of treatment, 20 mg group (17 lesions under placebo); cited from earlier work.
In series [3] the test system is RRMS subjects. The conditions noted are these: largest controlled study, cited from earlier work.

As to Glatiramer acetate [GA], the “ERAP2 expression change by treatment” value in the series with ERAP2 is on record as “not modified”. Moreover, the tolerability result in series [1] was “generally well tolerated”. Further, the “median cumulative number of Gd-enhancing lesions” value in the series with RRMS subjects [2] is reported as 11 lesions. For the same substance, the relapse rate reduced with RRMS subjects [3] (GA 20 mg vs placebo) is 32%. In the series with RRMS subjects [3] (under GA 20 mg (1.98 under placebo)), the relapse rate is listed as 1.34.
